What all share (test): NCI anticancer screen, dose series, 48 h
Experiment [1] relates to SK-MEL-28.
Experiment [2] concerns BT-549.
Experiment [3] concerns SK-MEL-2.
Experiment [4] has as its system RPMI-8226.
Experiment [5] concerns A498.
Experiment [6] concerns Hs-578T.
The subject of experiment [7] is RXF 393.
Experiment [8] has as its system PC-3.
The subject of experiment [9] is SF-539.
In experiment [10] the test system is OVCAR-8.
In experiment [11] the test system is XF498.
The subject of experiment [12] is KM12.
Experiment [13] has as its system DMS-273.
Experiment [14] has as its system HOP-18.
In experiment [15] the test system is LXFL 529.
The subject of experiment [16] is HCT-116.
Experiment [17] has as its system KM-20L2.
In experiment [18] the test system is DLD-1.
The test system of experiment [19] is HL-60.
Experiment [20] has as its system SNB-78.

Several values for one entry are separate records, joined by “and”; a condition that tells them apart may be missing. Identical values can stand only once.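 Results reflect a 48-hour exposure of cells in 96-well plates to compound at five concentrations. Abbreviation: GI50, concentration required for 50% inhibition of growth.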 Activity calls are given as the source filed them. No stated cut-off is given here; in the data, active = GI50 up to about 1.1 µM and inactive = higher. Some results are limits rather than exact numbers.

Turning to `COC1OC2COC(c3ccccc3)OC2C(OC(=S)c2ccccc2)C1O` (centres undefined), the GI50 in [1] was 0.662 µM (active); in experiment [2], > 100 µM (inactive); in experiment [3] it was 51.1 µM (inactive); in [4] it was 13.9 µM (inactive); in experiment [5], > 100 µM (inactive); in [6] it was 27.2 µM (inactive). Further, the GI50 is 12 µM (inactive) in experiment [7], 4.61 µM (inactive) in experiment [8], 13.2 µM (inactive) in experiment [9] and 16.9 µM (inactive) in experiment [10].

Turning to `Cc1cccc(NC(=O)/C(=N\N)C(c2cnc3ccc([N+](=O)[O-])cc3n2)[N+](=O)[O-])c1C` (centres undefined), the GI50 in [1] is > 100 µM (inactive); in experiment [11], > 100 µM (inactive); in experiment [12] it was 41.8 µM (inactive); in experiment [3], > 100 µM (inactive); in experiment [13], > 100 µM (inactive); in [14], > 100 µM (inactive). Moreover, the GI50 in [15] is > 100 µM (inactive); in experiment [16], > 100 µM (inactive); in experiment [17], 71.8 µM (inactive); in experiment [7], > 100 µM (inactive); in experiment [9], > 100 µM (inactive); in experiment [18], > 100 µM (inactive). Moreover, the GI50 in [10] and in experiment [19] was > 100 µM (inactive) in each case.

As to `COC(=O)C(C(=O)C(=O)Nc1nnc(S)[nH]1)c1csc(-n2nc(-c3ccccc3)cc2-c2ccccc2)n1` (centres undefined), the GI50 in experiment [12], in [13], in experiment [20], in experiment [15], in experiment [16] and in experiment [4] was > 100 µM (inactive) throughout. The GI50 in experiment [5], in [17], in [7], in experiment [18], in [10] and in [19] was > 100 µM (inactive) in each case.

For `COc1nc(C#CCC(C)O)nc(OC)n1` (centres undefined), the GI50 in [1] was 31.6 µM (inactive); in [12], 24.5 µM (inactive); in experiment [2] it was 18.4 µM (inactive); in experiment [3], 33.7 µM (inactive); in experiment [16], 14.9 µM (inactive); in [5], 30.5 µM (inactive). Besides, the GI50 in [6] is 25.7 µM (inactive); in experiment [7], 7.38 µM (inactive); in experiment [8] it was 22.6 µM (inactive); in experiment [9], 26 µM (inactive); in [10], 17.1 µM (inactive); in [19], 24.3 µM (inactive).

In the case of `COc1ccc(/C(Cl)=C(\C=O)c2ccc(F)cc2)cc1OC`, the GI50 is 24 µM (inactive) in experiment [1]; 16.4 µM (inactive) in experiment [3]; 27.4 µM (inactive) in [13]; 15.3 µM (inactive) in experiment [20]; 12.9 µM (inactive) in experiment [14]; 11.5 µM (inactive) in experiment [15]. Moreover, the GI50 in experiment [16] is 15.4 µM (inactive); in experiment [4], 6.64 µM (inactive); in experiment [5], 20 µM (inactive); in experiment [17], 16.2 µM (inactive); in experiment [9], 23 µM (inactive); in experiment [18], 21.8 µM (inactive). The GI50 in experiment [10] was 21.5 µM (inactive); in experiment [19], 7.16 µM (inactive).

Turning to `COCCCNc1nc(N)c(C#N)c(C#N)c1C#N`, the GI50 in experiment [1], in experiment [12], in [3], in [16], in experiment [4] and in [5] was > 10 µM (inactive) throughout. Besides, the GI50 in experiment [6] is > 10 µM (inactive); in experiment [7] it was > 10 µM (inactive); in experiment [8] it was > 10 µM (inactive); in [9], > 10 µM (inactive); in experiment [10] it was > 10 µM (inactive); in [19], 4.47 µM (inactive).

As for `Oc1ccc2ccccc2c1/N=N/c1ccccc1`, the GI50 in experiment [1], in [2], in experiment [3], in experiment [16], in experiment [4] and in [5] was > 100 µM (inactive) throughout. The GI50 was > 57.3 µM (inactive) and 35.4 µM (inactive) in experiment [6]; > 100 µM (inactive) in [7]; > 87.9 µM (inactive) in experiment [8]; > 100 µM (inactive) in experiment [9]; 56.1 µM (inactive) in experiment [10]; > 100 µM (inactive) and 73.1 µM (inactive) in experiment [19].

With `O=C(N/N=C/c1cc(Br)cc(Br)c1O)c1ccccc1O`, the GI50 was 0.708 µM (active) in experiment [1]; 1.43 µM (inactive) in experiment [12]; 0.433 µM (active) in experiment [3]; 1.82 µM (inactive) in [16]; 2 µM (inactive) in experiment [17]; 0.929 µM (active) in [7]. In addition, the GI50 in experiment [9] was 0.61 µM (active); in [10], 0.463 µM (active); in experiment [19], 0.15 µM (active).

With `C1=N\CCOCC/N=C\c2ccc(cc2)OCc2cccc(n2)COc2ccc/1cc2`, the GI50 in [1], in [12], in [2], in experiment [3], in experiment [16] and in experiment [4] was > 100 µM (inactive) in each case. Besides, the GI50 in [5], in [6], in experiment [7], in experiment [8], in [9] and in experiment [10] was > 100 µM (inactive) in each case. Besides, the GI50 in experiment [19] was > 100 µM (inactive).

On to `Cc1ccc(N2C(=O)C3CSCN3C2=O)cc1` (centres undefined), for which the GI50 was 15.8 µM (inactive) in experiment [1]; > 100 µM (inactive) in [11]; > 100 µM (inactive) in experiment [12]; > 100 µM (inactive) in experiment [3]; > 100 µM (inactive) in experiment [14]; 2.46 µM (inactive) in [16]. Further, the GI50 in experiment [4], in experiment [5], in [9], in experiment [18], in experiment [10] and in experiment [19] was > 100 µM (inactive) in each case.

As to `C=CCc1c(O)c2c(c3oc(=O)cc(C)c13)CC(C)O2` (centres undefined), the GI50 in [3] is > 100 µM (inactive); in experiment [13], > 100 µM (inactive); in [20] it was > 100 µM (inactive); in experiment [14], 90.2 µM (inactive); in experiment [15], > 100 µM (inactive); in experiment [16], > 100 µM (inactive). The GI50 was 60.8 µM (inactive) in [4]; > 100 µM (inactive) in experiment [17]; 67.8 µM (inactive) in experiment [7]; > 100 µM (inactive) in [9]; 48.6 µM (inactive) in experiment [18]; 65.3 µM (inactive) in experiment [10]. In [19], the GI50 is 86.7 µM (inactive).

Take `CON(C)c1nc(N(C)OC)nc(N(C)OC)n1`: the GI50 in experiment [1], in [12], in [3], in experiment [16], in [4] and in experiment [5] was > 10 µM (inactive) in each case. The GI50 in [6], in [7], in experiment [8], in experiment [9], in [10] and in [19] was > 10 µM (inactive) in each case.

Consider `Cc1cn(C2CC(N)C(C(=O)NCC(=O)O)O2)c(=O)[nH]c1=O` (centres undefined), for which the GI50 is > 100 µM (inactive) in [1]; > 100 µM (inactive) in experiment [12]; > 100 µM (inactive) in [2]; > 100 µM (inactive) in [16]; > 100 µM (inactive) in experiment [4]; 50.6 µM (inactive) in experiment [5]. The GI50 in [6], in [7], in [8] and in experiment [19] was > 100 µM (inactive) each time.

Regarding `CCN1CCC(O)(C(C(=O)O)c2ccccc2)CC1` (centres undefined), the GI50 in experiment [1], in experiment [12], in experiment [2], in experiment [3], in experiment [4] and in experiment [5] was > 100 µM (inactive) each time. For the same compound, the GI50 in experiment [6], in [7], in experiment [8], in experiment [10] and in experiment [19] was > 100 µM (inactive) throughout.

In the case of `O=C(NC1C=Nc2ccc([N+](=O)[O-])cc2NC1=O)c1cc(Cl)cc([N+](=O)[O-])c1` (centres undefined), the GI50 in experiment [1] was > 100 µM (inactive); in [11], > 100 µM (inactive); in experiment [12], 54.3 µM (inactive); in experiment [3], > 100 µM (inactive); in experiment [13], 99.5 µM (inactive); in experiment [20], > 100 µM (inactive). Moreover, the GI50 in experiment [15] is > 100 µM (inactive); in [16], > 100 µM (inactive); in [4], 44.2 µM (inactive); in experiment [5], > 100 µM (inactive); in [17], > 100 µM (inactive); in experiment [7] it was > 100 µM (inactive). The GI50 was > 100 µM (inactive) in experiment [9], > 100 µM (inactive) in experiment [18], > 100 µM (inactive) in experiment [10] and 12.9 µM (inactive) in [19].

For `COc1ccc(NC(=O)CC(=O)N2N=C(N3c4ccccc4Sc4ccccc43)CC2c2ccccc2)cc1` (centres undefined), the GI50 in experiment [1], in [12], in [2], in [3], in experiment [16] and in [4] was > 100 µM (inactive) throughout. Moreover, the GI50 in experiment [6] was 39.7 µM (inactive); in [7], > 100 µM (inactive); in experiment [8], > 100 µM (inactive); in experiment [9], > 100 µM (inactive); in experiment [10] it was > 100 µM (inactive); in experiment [19] it was > 100 µM (inactive).

For the origin of these results see ChEMBL document CHEMBL1201862, “PubChem BioAssay data set” (2004).
